Assays:
NTCP = target: T1, NTCP (Homo sapiens, UniProt Q14973); experiment: Inhibition by CLF of TC transport in CHO cells expressing NTCP; assay type: cell-based; details: 0, 5 or 50 μmol/L CLF, 2.5 μmol/L TC
T1 construct: the coding region ligated into pcDNA5/FRT; expressed in transfected cells
T1 sequence (Q14973 1-349): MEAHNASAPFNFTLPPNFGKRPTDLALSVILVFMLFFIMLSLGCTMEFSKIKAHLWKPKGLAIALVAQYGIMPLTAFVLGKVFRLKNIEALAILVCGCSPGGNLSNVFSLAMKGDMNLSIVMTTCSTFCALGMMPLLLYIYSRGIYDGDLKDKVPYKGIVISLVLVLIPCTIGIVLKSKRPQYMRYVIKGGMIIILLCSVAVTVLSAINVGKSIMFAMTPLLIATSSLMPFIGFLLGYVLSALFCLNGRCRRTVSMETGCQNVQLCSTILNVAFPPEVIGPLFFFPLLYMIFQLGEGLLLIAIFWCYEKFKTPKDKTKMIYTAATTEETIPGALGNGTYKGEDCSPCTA
Procedure: FIGS. 3A-3D relate to inhibition of transport activity of hepatocellular uptake transporters by CLF. CHO cells expressing NTCP, OATP1B1, OATP1B3 and OATP2B1 were incubated with 0, 5 or 50 μmol/L CLF and with the substrates, 2.5 μmol/L TC, 1 μmol/L estrone-3-sulfate, 10 μmol/L TC and 1 μmol/L estrone-3-sulfate, respectively. Data represent means±SD of triplicate determinations.
For all transport experiments, cells grown on 3 cm culture dishes were cultured for 24 hours in media supplemented with 5 mmol/L sodium-butyrate to increase expression levels of transfected transporters [Palermo D P et al., J Biotechnol 1991 June; 19(1):35-47]. • Transport experiments with uptake of radioactively labeled substrates: These experiments were performed as described by Huber R D et al. [Am J Physiol Cell Physiol 2007 February; 292(2):C795-C806]. • Transport experiments with uptake of CLF: Uptake was performed in the same buffers as for the radioactive substrates above. […] After complete solubilization, 1.5 ml was used to measure fluorescence in a Perkin-Elmer LS-5 luminescence-spectrometer set at λexe 486 nm (slit 10 nm) and λem 520 nm (slit 5 nm). Protein was determined with the bicinchoninic acid method using a kit from Interchim (Montfuçon, France). […]

wild type CHO cells = experiment: Effect of CLF on substrate uptake in wild type CHO cells; assay type: cell-based
Procedure: For all transport experiments, cells grown on 3 cm culture dishes were cultured for 24 hours in media supplemented with 5 mmol/L sodium-butyrate to increase expression levels of transfected transporters [Palermo D P et al., J Biotechnol 1991 June; 19(1):35-47]. • Transport experiments with uptake of radioactively labeled substrates: These experiments were performed as described by Huber R D et al. [Am J Physiol Cell Physiol 2007 February; 292(2):C795-C806]. • Transport experiments with uptake of CLF: Uptake was performed in the same buffers as for the radioactive substrates above. For visualization of CLF uptake, cells were immediately inspected with a Leica-DM-IRBE-inverted-microcope (Leica-Microsystems, Wetzlar, Germany) equipped with a Hamamatsu-ORKA-ER-camera (Hamamatsu-Photonoics, Japan). To determine uptake of CLF, cells were solubilized by the addition of 2 ml 1% (w/v) Triton-X-100. After complete solubilization, 1.5 ml was used to measure fluorescence in a Perkin-Elmer LS-5 luminescence-spectrometer set at λexe 486 nm (slit 10 nm) and λem 520 nm (slit 5 nm). Protein was determined with the bicinchoninic acid method using a kit from Interchim (Montfuçon, France). Transport data from OATP expressing cell lines were corrected for binding by subtracting 0 min time points (blank values) and except for FIGS. 2B and 2C were normalized per minute. […]

## CC(CCC(=O)NC(CCCCNC(=S)Nc1ccc(-c2c3ccc(=O)cc-3oc3cc(O)ccc23)c(C(=O)O)c1)C(=O)O)C1CCC2C3C(O)CC4CC(O)CCC4(C)C3CC(O)C12C (centres unmarked) [CLF, cholyl lysyl fluorescein]
NTCP
  inhibition of transport of TC via NTCP by CLF: very efficiently inhibited
Wild type CHO cells
  influence of CLF on substrate uptake in wild type cells: no influence on substrate uptake

— patent US8318504B2, “MRP2 efflux pathway prognostic method” (priority 2009, dated 2012)
